Read-outs that look alike come from different tables or passages of the source.
Key:
SW480 = assay: Growth inhibition test (MTT), cytotoxic action on tumour cell lines; assay type: cell-based; details: Homo sapiens, SW480, 144 h, read-out: IC50 values of the cytotoxic action on tumour cell lines, SW480
Method: (§1) The human large intestine cell lines SW 480 and HT29 (ATCC No. CCL 228 and HTB38), the human breast cell lines MDA-MB 231, MCF-7 and BT20 (ATCC No. HTB-, 26, 22 and 23) and the mouse melanoma cell line B16F 10 (CRL 6475) were grown to confluence in Roux dishes in RPMI 1640 medium with addition of 10% FCS. They were then trypsinized and taken up in RPMI plus 10% FCS to a cell count of 50,000 cells or, for B16F10, 20,000 cells per ml. 100 μl of cell suspension/well were added to a 96 microwell plate and incubated at 37° C. for 1 day in a CO2 incubator. A further 100 μl of RPMI medium and 1 μl of DMSO were then added with the test substances. The growth was checked after day 6. For this, 25 μl of MTT solution (3-(4,5-dimethylthiazol-2-yl)-2,5-diphenyltetrazolium bromide) was added to each well at a starting concentration of 5 mg/ml of H2O. The plate was incubated at 37° C. for 5 hours in a CO2 incubator. The medium was then aspirated and 100 μl of i-propanol/well were added. After shaking with 100 μl of H2O for 30 min, the extinction was measured at 595-nm using a Multiplate Reader (BIO-RAD 3550-UV).
(§2) The cytostatic action is indicated in Table 2 as an IC50 value, in each case for the individual cell lines.

BT20 = assay: as above; assay type: cell-based; details: Homo sapiens, BT-20, 144 h, read-out: IC50 values of the cytotoxic action on tumour cell lines, BT20
Method: as §1, §2

MCF7 = assay: as above; assay type: cell-based; details: Homo sapiens, MCF7, 144 h, read-out: IC50 values of the cytotoxic action on tumour cell lines, MCF7
Method: as §1, §2

MDA-MB 231 = assay: as above; assay type: cell-based; details: Homo sapiens, MDA-MB-231, 144 h, read-out: IC50 values of the cytotoxic action on tumour cell lines, MDA-MB 231
Method: as §1, §2

B16F10 = assay: as above; assay type: cell-based; details: Mus musculus, B16-F10, 144 h, read-out: IC50 values of the cytotoxic action on tumour cell lines, B16F10
Method: as §1, §2

HT 29 = assay: as above; assay type: cell-based; details: Homo sapiens, HT-29, 144 h, read-out: IC50 values of the cytotoxic action on tumour cell lines, HT 29
Method: as §1, §2

[1] = molecular target: T1, αvβ3 receptor (αvβ3 from human A375 cells) (Homo sapiens, UniProt P05106+P06756); assay: αvβ3 binding test (echistatin displacement, WGA SPA beads)
T1 construct: αvβ3 from human A375 cells was purified analogously to a procedure which was described by Wong et al; endogenous in cells; host or cells: human A375 cells; the receptor was purified from the cells and used detergent-solubilised (n-octyl-glucopyranoside)
T1 sequence (P06756 31-889 limits assumed): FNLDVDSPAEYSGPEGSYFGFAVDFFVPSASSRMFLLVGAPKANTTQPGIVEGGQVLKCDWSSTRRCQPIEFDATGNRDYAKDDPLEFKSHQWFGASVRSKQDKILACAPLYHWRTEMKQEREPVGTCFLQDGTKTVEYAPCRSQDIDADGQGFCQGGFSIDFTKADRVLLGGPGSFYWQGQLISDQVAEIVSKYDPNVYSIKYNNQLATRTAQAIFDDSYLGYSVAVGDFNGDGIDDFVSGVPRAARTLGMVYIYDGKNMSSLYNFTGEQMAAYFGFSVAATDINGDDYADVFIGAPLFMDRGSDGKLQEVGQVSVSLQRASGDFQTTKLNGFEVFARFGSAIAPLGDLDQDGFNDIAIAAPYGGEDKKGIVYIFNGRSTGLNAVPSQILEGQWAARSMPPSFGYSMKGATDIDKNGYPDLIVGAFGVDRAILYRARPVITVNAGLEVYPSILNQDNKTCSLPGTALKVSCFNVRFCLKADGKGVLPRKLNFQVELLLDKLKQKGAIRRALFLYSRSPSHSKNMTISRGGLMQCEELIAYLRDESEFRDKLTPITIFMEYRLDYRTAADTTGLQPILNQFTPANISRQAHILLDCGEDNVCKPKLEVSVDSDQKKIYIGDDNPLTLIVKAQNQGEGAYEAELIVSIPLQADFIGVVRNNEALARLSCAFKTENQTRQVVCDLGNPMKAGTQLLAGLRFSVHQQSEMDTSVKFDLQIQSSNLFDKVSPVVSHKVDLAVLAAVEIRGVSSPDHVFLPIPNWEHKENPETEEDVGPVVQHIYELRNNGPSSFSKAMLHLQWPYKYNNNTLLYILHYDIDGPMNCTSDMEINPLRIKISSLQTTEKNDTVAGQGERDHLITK
T1 sequence (P06756 891-1048 partner limits assumed): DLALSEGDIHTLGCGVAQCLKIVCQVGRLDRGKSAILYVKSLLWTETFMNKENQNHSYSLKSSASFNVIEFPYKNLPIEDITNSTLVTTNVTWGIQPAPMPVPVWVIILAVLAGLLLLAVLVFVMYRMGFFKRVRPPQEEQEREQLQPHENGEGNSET
T1 sequence (P05106 27-788): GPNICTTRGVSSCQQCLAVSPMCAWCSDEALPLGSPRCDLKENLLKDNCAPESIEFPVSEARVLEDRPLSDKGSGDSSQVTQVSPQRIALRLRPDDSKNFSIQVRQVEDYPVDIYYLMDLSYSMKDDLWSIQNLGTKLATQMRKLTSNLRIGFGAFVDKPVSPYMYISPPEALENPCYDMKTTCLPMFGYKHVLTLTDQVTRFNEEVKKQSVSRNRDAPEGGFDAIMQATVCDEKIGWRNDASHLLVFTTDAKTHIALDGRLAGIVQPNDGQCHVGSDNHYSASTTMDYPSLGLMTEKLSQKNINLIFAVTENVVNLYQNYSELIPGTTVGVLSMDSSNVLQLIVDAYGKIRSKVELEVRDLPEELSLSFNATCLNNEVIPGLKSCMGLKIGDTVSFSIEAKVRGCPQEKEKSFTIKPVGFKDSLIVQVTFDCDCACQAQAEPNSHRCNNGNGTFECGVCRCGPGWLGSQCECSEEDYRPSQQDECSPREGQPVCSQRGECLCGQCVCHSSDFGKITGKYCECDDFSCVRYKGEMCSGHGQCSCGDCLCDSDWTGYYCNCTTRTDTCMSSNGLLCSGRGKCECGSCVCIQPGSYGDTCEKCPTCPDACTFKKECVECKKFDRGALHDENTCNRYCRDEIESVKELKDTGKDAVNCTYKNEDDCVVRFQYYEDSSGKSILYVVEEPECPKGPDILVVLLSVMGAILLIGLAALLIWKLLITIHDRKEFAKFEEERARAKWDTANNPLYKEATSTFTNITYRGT
Method: αvβ3 from human A375 cells was purified analogously to a procedure which was described by Wong et al. (Molecular Pharmacology, 50, 529–537 (1996)). In each case, 10 μl of αvβ3 (5 ng) in TBS pH 7.6, 2 mM CaCl2, 1 mM MgCl2, 1% n-octyl-glucopyranoside (Sigma); 10 μl of test substance in TBS pH 7.6, 0.1% DMSO and 45 μl of TBS pH 7.6, 2 mM CaCl2, 1 mM MgCl2, 1 mM MnCl2 were incubated at room temperature for 1 h. In each case, 25 μl of WGA SPA beads (Amersham, 4 mg/ml) and 10 μl of echistatin ([…], Amersham, chloramine-T labelled) were then added. After 16 hours at room temperature, the samples were measured in a scintillation measuring apparatus (Wallac 1450).

[2] = αvβ3 purified from human A375 cells, labelled echistatin, read-out: IC50 values of the binding to the αvβ3 receptor

Compound | IC50 (SW480) | IC50 (BT20) | IC50 (MCF7) | IC50 (MDA-MB 231) | IC50 (B16F10) | IC50 (HT 29) | IC50 [1] | IC50 [1, 2]
CC[C@@]1(OC(=O)[C@@H](NC(=O)[C@H](Cc2cnc[nH]2)NC(=S)Nc2ccc(CC(NS(=O)(=O)c3cccc(-c4cccc(NC(=O)Nc5nc6ccccc6[nH]5)c4)c3)C(=O)O)cc2)C(C)C)C(=O)OCc2c1cc1n(c2=O)Cc2cc3ccccc3nc2-1 (stereo partly shown) [Example 3.9] | 400 nM | 500 nM | 150 nM | 60 nM | 1000 nM | 60 nM | 220 nM | 
CC[C@@]1(OC(=O)[C@@H](NC(=O)[C@H](Cc2c[nH]cn2)NC(=S)Nc2cccc(S(=O)(=O)NC(CC(=O)O)c3cccc(NS(=O)(=O)c4cccc(NC(=N)N)c4)c3)c2)C(C)C)C(=O)OCc2c1cc1n(c2=O)Cc2cc3ccccc3nc2-1 (stereo partly shown) [Example 3.1] | 1000 nM | 1000 nM | 800 nM | 500 nM | 1000 nM | 400 nM | 147 nM | 
CCCNC(=O)Nc1cccc(-c2ccc(CC(NS(=O)(=O)c3cccc(NC(=S)N[C@@H](Cc4c[nH]cn4)C(=O)N[C@H](C(=O)O[C@]4(CC)C(=O)OCc5c4cc4n(c5=O)Cc5cc6ccccc6nc5-4)C(C)C)c3)C(=O)O)cc2)c1 (stereo partly shown) [Example 3.10] | 300 nM | 400 nM | 200 nM | 200 nM | 800 nM | 350 nM |  | 154 nM
CCCNC(=O)Nc1cccc(-c2ccc(CC(NC(=O)N[C@H](C(=O)O[C@]3(CC)C(=O)OCc4c3cc3n(c4=O)Cc4cc5ccccc5nc4-3)C(C)C)C(=O)O)cc2)c1 (stereo partly shown) [Example 3.14] | 150 nM | 100 nM | 80 nM | 150 nM | 200 nM | 100 nM |  | 21 nM
CC[C@@]1(OC(=O)[C@@H](NC(=O)[C@H](Cc2c[nH]cn2)NC(=O)Nc2cccc(-c3cccc(S(=O)(=O)NC(CC(=O)O)c4ccccc4)c3)c2)C(C)C)C(=O)OCc2c1cc1n(c2=O)Cc2cc3ccccc3nc2-1 (stereo partly shown) [Example 2.10] | 1000 nM | 1000 nM | 1500 nM | 400 nM | 2000 nM | 700 nM |  | 101 nM
CCC1(OC(=O)[C@@H](NC(=O)[C@H](Cc2c[nH]cn2)NC(=O)Nc2cccc(-c3ccc(S(=O)(=O)NC(CC(=O)O)c4ccccc4)cc3)c2)C(C)C)C(=O)OCc2c1cc1n(c2=O)Cc2cc3ccccc3nc2-1 (stereo partly shown) [Example 2.11] | 600 nM | 400 nM | 500 nM | 600 nM | 800 nM | 400 nM |  | 197 nM
CC[C@@]1(OC(=O)[C@@H](NC(=O)[C@H](CCCCN)NC(=S)Nc2ccc(S(=O)(=O)NC(CC(=O)O)c3cccc(NS(=O)(=O)c4cccc(NC(=N)N)c4)c3)cc2)C(C)C)C(=O)OCc2c1cc1n(c2=O)Cc2cc3ccccc3nc2-1 (stereo partly shown) [Example 3.4] | 200 nM | 700 nM | 700 nM | 300 nM | 500 nM | 200 nM |  | 65 nM
CCCNC(=O)Nc1cccc(-c2ccc(CC(NC(=S)Nc3cccc4nc5c(cc34)Cn3c-5cc4c(c3=O)COC(=O)[C@]4(O)CC)C(=O)O)cc2)c1 (stereo partly shown) [Example 3.15] | 200 nM | 2000 nM | 300 nM | 200 nM | 6000 nM | 200 nM |  | 61 nM
CC[C@@]1(OC(=O)[C@@H](NC(=O)[C@H](CCCCNC(=O)OCC2c3ccccc3-c3ccccc32)NC(=O)Nc2cccc(-c3ccc(S(=O)(=O)NC(CC(=O)O)c4ccccc4)cc3)c2)C(C)C)C(=O)OCc2c1cc1n(c2=O)Cc2cc3ccccc3nc2-1 (stereo partly shown) [Example 2.14] | 300 nM | 200 nM | 150 nM | 300 nM | 25 nM | 300 nM | 84 nM | 
CC[C@@]1(OC(=O)[C@@H](NC(=O)Nc2cccc(-c3cccc(S(=O)(=O)NC(CC(=O)O)c4ccccc4)c3)c2)C(C)C)C(=O)OCc2c1cc1n(c2=O)Cc2cc3ccccc3nc2-1 (stereo partly shown) [Example 2.13] | 15 nM | 5 nM | 10 nM | 20 nM | 20 nM | 15 nM |  | 97 nM
CC[C@@]1(OC(=O)[C@@H](NC(=O)[C@H](CCCCNC(=O)OCC2c3ccccc3-c3ccccc32)NC(=O)Nc2cccc(-c3cccc(S(=O)(=O)NC(CC(=O)O)c4ccccc4)c3)c2)C(C)C)C(=O)OCc2c1cc1n(c2=O)Cc2cc3ccccc3nc2-1 (stereo partly shown) [Example 2.9] | 1000 nM | 1500 nM | 300 nM | 700 nM | 300 nM | 700 nM | 236 nM | 
CC[C@@]1(OC(=O)[C@@H](NC(=O)[C@H](Cc2cnc[nH]2)NC(=O)Nc2cccc(-c3ccc(C[C@H](NS(=O)(=O)CC45CCC(CC4=O)C5(C)C)C(=O)O)cc3)c2)C(C)C)C(=O)OCc2c1cc1n(c2=O)Cc2cc3ccccc3nc2-1 (stereo partly shown) [Example 2.7] | 900 nM | 5000 nM | 800 nM | 900 nM | 3000 nM | 600 nM | 86 nM | 
CC[C@@]1(OC(=O)[C@@H](NC(=O)[C@H](Cc2c[nH]cn2)NC(=S)Nc2cccc(S(=O)(=O)Nc3cccc(C(CC(=O)O)NS(=O)(=O)c4ccccc4)c3)c2)C(C)C)C(=O)OCc2c1cc1n(c2=O)Cc2cc3ccccc3nc2-1 (stereo partly shown) [Example 2.3] | 120 nM | 80 nM | 60 nM | 20 nM |  | 70 nM | 697 nM | 
CC[C@@]1(OC(=O)C(NC(=O)C(CCCCN)NC(=S)Nc2cccc(-c3ccc(C[C@H](NS(=O)(=O)CC45CCC(CC4=O)C5(C)C)C(=O)O)cc3)c2)C(C)C)C(=O)OCc2c1cc1n(c2=O)Cc2cc3ccccc3nc2-1 (stereo partly shown) [Example 2.5] | 200 nM | 400 nM | 300 nM | 300 nM | 400 nM | 300 nM |  | 190 nM
CC[C@@]1(OC(=O)[C@@H](NC(=O)[C@H](CCCCNC(=O)CC(NC(=O)CNC(=O)c2cccc(NC(=N)N)c2)c2ccccc2)NC(=S)Nc2ccccc2)C(C)C)C(=O)OCc2c1cc1n(c2=O)Cc2cc3ccccc3nc2-1 (stereo partly shown) [Example 1.1] | 200 nM | 150 nM | 90 nM | 100 nM |  | 120 nM |  | 873 nM
CC[C@@]1(OC(=O)[C@@H](NC(=O)[C@H](CCC(=O)O)NC(=S)Nc2cccc(C(=O)NCC(=O)NC(CC(=O)O)c3ccccc3)c2)C(C)C)C(=O)OCc2c1cc1n(c2=O)Cc2cc3ccccc3nc2-1 (stereo partly shown) [Example 2.2] | 500 nM | 400 nM | 300 nM | 300 nM |  | 300 nM |  | 1500 nM
CC[C@@]1(OC(=O)[C@@H](NC(=O)[C@H](Cc2c[nH]cn2)NC(=S)Nc2ccc(C(=O)NC(CC(=O)O)c3cccc(NS(=O)(=O)c4cccc(NC(=N)N)c4)c3)cc2)C(C)C)C(=O)OCc2c1cc1n(c2=O)Cc2cc3ccccc3nc2-1 (stereo partly shown) [Example 3.3] | 300 nM | 150 nM | 100 nM | 100 nM |  | 90 nM | 45 nM | 
CC[C@@]1(O)C(=O)OCc2c1cc1n(c2=O)Cc2cc3c(NC(=S)NC(CC(=O)O)c4cccc(NS(=O)(=O)c5cccc(NC(=N)N)c5)c4)cccc3nc2-1 (stereo partly shown) [Example 3.17] | 800 nM | 5000 nM |  | 3000 nM | 5000 nM | 600 nM |  | 66 nM

Source: patent US7220824B1, “Integrin-mediated drug targeting” (Bayer Aktiengesellschaft, priority 2000, dated 2007)
